Legend:
S3 cells = test: Connexon activity of S3 cells treated with KN62 and KN93 derivatives; assay type: cell-based, mouse; settings: for Connexon activity at 0.1 μM / Connexon activity at 1 μM / Connexon activity at 10 μM / Connexon activity at 50 μM: 24 hours of treatment
Procedure: Animal cells and wild-type mouse cells transgenic animals S3 created in the as described in EXAMPLE 13 are cultured in 96-well microplates. We have shown that the S3 cells have an abnormality of the connexon activity due to the mutation of connexin 32 introduced in this line. […] The cells were incubated with new molecules and connexon activity was evaluated. […] Regarding KN93 derivatives most substitutions suppress the activity “correction activity connexon” molecules, excepting for a few molecules.
S3 cells were treated with various molecules, at increasing concentrations. Moreover transgenic animals of the same lineage cells and untreated transgenic animals are used as controls. The connexon activity was assessed after 24 hours of treatment. The activity is expressed in thousands of arbitrary fluorescence units. […] As a comparison we use the reference molecule KN 93 at a concentration of 10 μM.

S3 fibroblasts [1] = test: Nuclear volume evaluation (DAPI, ImageJ) in cultured fibroblasts; assay type: cell-based, mouse; settings: for Nuclear Volume: S3 fibroblasts cultured 24 hrs with CamKII inhibitor, WT 8607, untreated S3 15029; for Effect on nuclear (cellular) volume, in words: S3 fibroblasts treated with inhibitor
Procedure: (§1) For the isolation of fibroblasts a small fragment of mouse ear was removed, dipped in alcohol solution, cut into small pieces in a sterile Petri dish in the presence of PBS containing fungicide (fonigizon) diluted 1/250, and transferred to 2-ml tubes containing 1 ml dissociation buffer (DMEM plus 20% FBS, 1 mg/ml BSA, 0.5 mg/ml collagenase, 0.25 mg/ml trypsin and penicillin/streptomycin). The tubes were incubated in a water bath with agitation for 1 h at 37° C. Fibroblast medium (DMEM, 10% FBS, 2 mM Gln, 100 U/ml penicillin, 100 μg/ml streptomycin) was added to each tube and the samples were centrifuged at 400 g for 10 min. The cells were re-suspended in fibroblast medium, seeded into Petri dishes and placed in an incubator at 37° C., 5% CO2. The culture medium was replaced every two days. When the cultures reached sub-confluence, the cells were trypsinized and expanded into tissue culture flasks. All experiments were performed using cells between passage numbers four and eight.
Nuclei were stained with DAPI and nuclear volume was evaluated with ImageJ software.
Nuclear volume correction. Fibroblasts from Wild type (WT) and S3 transgenic mouse have been cultured for 24 hrs with or without CamKII inhibitors (KN62 and KN93). Nuclear volume has been evaluated using the Imagej software. […] This experiment has been repeated three time.

S3 fibroblasts [2] = test: Centrosome number per cell (γ-tubulin labelling); assay type: cell-based, mouse; settings: for >centro (percentage of cells with more than two centrosomes) / 2 centro (percentage of cells with two centrosomes) / 1 centro (percentage of cells with one centrosome): S3 fibroblasts cultured with inhibitor; for >centro (percentage of cells with more than two centrosomes): WT 3, untreated S3 18; for 2 centro (percentage of cells with two centrosomes): WT 18, untreated S3 22; for 1 centro (percentage of cells with one centrosome): WT 79%, untreated S3 60%; for Effect on centrosome number per cell, in words: S3 fibroblasts treated with inhibitor
Procedure: as §1
Cells were grown on glass coverslips for 24 h to allow cultures to reach 80% confluence. To measure the number of centrosomes, cells were fixed with 4% PFA, permeabilized with methanol at −20° C. for 8 min and blocked with 0.5% Triton X-100 in PBS for 30 min at RT. To detect g-tubulin, cells were incubated overnight at 4° C. with a mouse anti-g-tubulin antibody (GTU-88; Sigma) diluted 1/1000 in PBS containing 0.1% milk and 0.05% Triton X-100. After washing, the cells were incubated for 1 h at RT with Cy3-conjugated goat antimouse IgG secondary antibody (Caltag Laboratories) diluted 1/2000 in PBS containing 0.1% milk and 0.05% Triton X-100. The preparations were counterstained with DAPI in Vectashield mounting medium (Vector Laboratories). Fluorescent images were acquired with a microscope (Leica DMR) equipped with a PL APO objective.
Number of centrosomes per cell. Fibroblasts from WT and S3 have been cultured with or without CamKII inhibitors. Centrosome number per cell has been evaluated as described in methods. […] This experiment has been repeated three time.

CamKII = settings: cited from earlier work
[3] = tested on: G2 transgenic line (mutated human Cx32 G12S); test: Rotarod locomotor test, G2 transgenic line; assay type: in vivo, mouse
Procedure: FIG. 4. Mice from the G2 line were treated either with a placebo (4 animals) or with soluble KN93 (4 animals, 1.5 mg/kg, i.p., 1 administration per day) for one month and performances on the rotarod evaluated. Treatment was then stopped and locomotor performances evaluated one month later.
(§2) Transgenic animals received intraperitoneal injections, either with a placebo (0.9% physiological serum) or with KN 93 (1.5 mg/kg). Treatment took place every day for one month.
(§3) Locomotor ability was tested using the rotarod procedure, requiring motor coordination and balance control. A machine manufactured by Bioseb was used for this purpose. A previously used procedure (Norreel et al., 2001) was adapted and two velocities (15 and 25) were used. Briefly, each mouse underwent the same 5-day procedure. The first two days were used to train the animals (five sessions of 2-min walking at a very low speed, i.e. five rotations per minute (r.p.m.)). The last three days were used to run the test sessions. Each day, the mice performed two series of five trials, a training speed with a 1-h rest period between the two series and a 5-min rest period between two consecutive trials. The software provided by Bioseb (Sedacom v1) was used to monitor the time the animals were on the rod.
(§4) Mouse from the G2 transgenic line have been treated either with a placebo (4 animals) or with soluble KN93 (4 animals). Locomotor performances of the animals have been evaluated using the rotarod test after one month of treatment. Performances of WT and G2 treated with KN93, are not statistically different. On the contrary performances of G2 animals treated either with a placebo or with KN93 are highly statistically significant (p value<0.0001). Treatment has been stopped for one month and rotarod performances evaluated. Rotarod performances of KN 93 treated or placebo treated degrade and are not statically different.

[4] = tested on: S3 transgenic line (mutated human Cx32 S26L); test: Rotarod locomotor test, S3 transgenic line; assay type: in vivo, mouse
Procedure: as §2, §3
as §4, with “Mouse (4)” for “Mouse”, “S3” for “G2”, “placebo” for “placebo (4 animals)”, “KN93.” for “KN93 (4 animals).”, “statistically” for “statically”

S3 fibroblasts [5] = test: Connexon activity, lucifer yellow uptake, 96 well plate; assay type: cell-based, mouse
Procedure: FIG. 3. A. Connexon activity in fibroblasts from WT, S3 and S3 treated with KN93 was monitored in a 96 well plate assay, using lucifer yellow as a fluorescent dye (see methods). Fluorescence is in arbitrary units. B, C and D. Connexon activity of WT mouse fibroblasts (B), S3 transgenic mouse (C) and S3 incubated with KN93 (D), were incubated with LY for two hours and examined under a fluorescent microscope.
One hundred thousand cells were cultured as described above for one day with or without CamKII inhibitors (KN62 or KN93 at a final concentration of 10 μM). Lucifer yellow (LY) was added to the medium (final concentration: 110 mM) and incubated for two hours. Fluorescence was recorded using a Perkin Elmer Victor 4 microplaque reader (excitation: 405 nm, emission: 535 nm).
Fibroblasts from WT and S3 (treated or not with KN93) have been cultured for 2 days in 96 wells microplaques. Lucifer yellow has been then added to the medium and fluorescence monitored after 2 hours (cell auto fluorescence and fluorescence of LY without cells, have been evaluated and substracted). This experiment has been repeated three time.

Compound	Connexon activity at 0.1 μM (S3 cells)	Connexon activity at 1 μM (S3 cells)	Connexon activity at 10 μM (S3 cells)	Connexon activity at 50 μM (S3 cells)	>centro (percentage of cells with more than two centrosomes) (S3 fibroblasts [2]) [%]	2 centro (percentage of cells with two centrosomes) (S3 fibroblasts [2]) [%]	1 centro (percentage of cells with one centrosome) (S3 fibroblasts [2]) [%]	Effect on centrosome number per cell, in words (S3 fibroblasts [2])	further results
COc1ccc(S(=O)(=O)N(CCO)c2ccccc2CN(C)C/C=C/c2ccccc2)cc1 [CM08-16, 2-hydroxy-S-(4-methoxyphenyl)-N′-[2-({methyl[(2E)-3-phenylprop-2-en-1-yl]amino}methyl)phenyl]ethane-1-sulfonamido]	131 thousands of arbitrary fluorescence units	142 thousands of arbitrary fluorescence units	159 thousands of arbitrary fluorescence units	160 thousands of arbitrary fluorescence units					
COc1ccc(S(=O)(=O)N(CCO)c2ccccc2CN(C)Cc2ccc3ccccc3c2)cc1 [CM08-18, 2-hydroxy-S-(4-methoxyphenyl)-N′-(2-{[methyl(naphthalen-2-ylmethyl)amino]methyl}phenyl)ethane-1-sulfonamido]	125 thousands of arbitrary fluorescence units	150 thousands of arbitrary fluorescence units	162 thousands of arbitrary fluorescence units	174 thousands of arbitrary fluorescence units					
COc1ccc(S(=O)(=O)N(CCO)c2ccccc2CN(C)Cc2ccccc2)cc1 [CM08-33, N-(2-{[benzyl(methyl)amino]methyl}phenyl)-2-hydroxy-S′-(4-methoxyphenyl)ethane-1-sulfonamido]	162 thousands of arbitrary fluorescence units	196 thousands of arbitrary fluorescence units	189 thousands of arbitrary fluorescence units	180 thousands of arbitrary fluorescence units					
COc1ccc(S(=O)(=O)N(CCO)c2ccccc2CN(C)CCCc2ccc(Cl)cc2)cc1 [CM08-40, N-[2-({[3-(4-chlorophenyl)propyl](methyl)amino}methyl)phenyl]-2-hydroxy-S′-(4-methoxyphenyl)ethane-1-sulfonamido]	169 thousands of arbitrary fluorescence units	169 thousands of arbitrary fluorescence units	167 thousands of arbitrary fluorescence units	162 thousands of arbitrary fluorescence units					
CN([C@@H](Cc1ccc(OS(=O)(=O)c2cccc3cnccc23)cc1)C(=O)N1CCN(c2ccccc2)CC1)S(=O)(=O)c1cccc2cnccc12 [KN62, 1-[N,Obis(5-isoquinolinesulfonyl)-N-methyl-L-tyrosyl]-4-phenylpiperazine]					6	32	62	returns to close to normal	Nuclear Volume (S3 fibroblasts [1]): 10100; Effect on nuclear (cellular) volume, in words (S3 fibroblasts [1]): restitution of normal cellular volume
COc1ccc(S(=O)(=O)Nc2ccccc2CN(C)C/C=C/c2ccc(Cl)cc2)cc1 [KN92]					20	20	60	unchanged	CamKII inhibitory activity, in words (CamKII): no CamKII inhibitory activity
COc1ccc(S(=O)(=O)N(CCO)c2ccccc2CN(C)C/C=C/c2ccc(Cl)cc2)cc1 [KN93]					7	20	73	returns to close to normal	Connexon activity, KN93 reference column (S3 cells; KN93 10 μM, 24 hours, WT 230, untreated S3 126-129): 191 thousands of arbitrary fluorescence units; Nuclear Volume (S3 fibroblasts [1]): 11000; Effect on nuclear (cellular) volume, in words (S3 fibroblasts [1]): restitution of normal cellular volume; Effect on progression of locomotor phenotype, in words ([3]; G2 animals, soluble form 1.5 mg/kg i.p. per day): significantly lowers the progression of the phenotype; Locomotor activity after treatment stopped, in words ([3]; G2 animals, treatment stopped after one month): rapid degradation of the locomotor activity ensued; Mean Minutes on rotarod, W4 treated ([3]; G2 line, 1.5 mg/kg i.p. per day for one month, T0 3.90, W4 placebo 3.20): 3.6 min; Mean Minutes on rotarod, W4 treated + 1 month arrest ([3]; G2 line, one month after stopping treatment, placebo + arrest 2.84): 2.9 min; Degradation of locomotor capacities, in words ([4]; S3 animals, soluble form 1.5 mg/kg i.p. per day): lowered; Locomotion after stopping the treatment, in words ([4]; S3 animals, treatment stopped): strong degradation of locomotion; Mean Minutes on rotarod, W4 treated ([4]; S3 line, 1.5 mg/kg i.p. per day for one month, T0 2.7, W4 placebo 2.1): 2.5 min; Mean Minutes on rotarod, W4 treated + 1 month arrest ([4]; S3 line, one month after stopping treatment, placebo + arrest 1.5): 1.41 min; Effect on connexon activity, in words (S3 fibroblasts [5]; S3 cells treated with KN93): significantly improved though not totally restored; LY intensity (S3 fibroblasts [5]; S3 fibroblasts, KN93 10 μM, fluorescence 2 hours after lucifer yellow, WT 63, untreated S3 17): 28 +/− 9 arbitrary units
